17 molecules from patent publication EP0973746B1, “SUBSTITUTED 3-CYANO QUINOLINES” (Wyeth Holdings Corporation, priority 1997, dated 1998) can be followed below.

Series [1] has as its target Epithelial Cell Kinase (ECK) (Homo sapiens, UniProt P29317). The series is described as follows: biochemical.
Description: In this standard pharmacological test procedure, a biotinylated peptide substrate is first immobilized on neutravidin-coated microtiter plates. The test drug, the Epithelial Cell Kinase (ECK), Mg^++, sodium vanadate (a protein tyrosine phosphatase inhibitor), and an appropriate buffer to maintain pH (7.2) are then added to the immobilized substrate-containing microtiter wells. ATP is then added to initiate phosphorylation. After incubation, the assay plates are washed with a suitable buffer leaving behind phosphorylated peptide which is exposed to horse radish peroxidase (HRP)-conjugated anti-phosphotyrosine monoclonal antibody. The antibody-treated plates are washed again and the HRP activity in individual wells is quantified as a reflection of degree of substrate phosphorylation.
In series [2] the target is recombinant human MEK 1 (MAPKK) and recombinant human ERK2 (MAPK). The series is described as follows: Mitogen Activated Protein Kinase (MAPK) assay, two component coupled MEK 1 / ERK2.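 Note: MEK 1-activated ERK2 phosphorylates MBP or Myc peptide with 33P-ATP, filter capture and scintillation counting, inhibitor preincubated with ERK2 30 min at 0 °C, inhibition relative to uninhibited control.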 Particulars: separate entries for the same compound = evaluated more than one time. Type of series: biochemical.
Series [3] deals with A431. The series is described as follows: Inhibition of cancer cell growth as measured by cell number, A431.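 Note: human A431 line, picked because it overexpresses epidermal growth factor receptor (EGFR).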 It is filed as cell-based, human. Particulars: Homo sapiens, A-431, 48 h.
Description: (§1) The cell lines were chosen since they overexpressed epidermal growth factor receptor (EGFR) (i.e. A431) or HER2/neu (SKBR3), or had little to no expression of the these receptors (SW620, LOX, MCF7).
Series [4] deals with SKBR3. Description: Inhibition of cancer cell growth as measured by cell number, SKBR3.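 Note: SK-BR-3 cells were selected as a line overexpressing HER2/neu.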 It is filed as cell-based, human. Particulars: Homo sapiens, SK-BR-3, 48 h.
Description: as §1
The subject of series [5] is SW620. The series is described as follows: Inhibition of cancer cell growth as measured by cell number, SW620.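 Note: SW620 was included as a cell line with little or no EGFR or HER2/neu expression, in contrast to receptor-overexpressing lines.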 Type of series: cell-based, human. Particulars: Homo sapiens, SW-620, 48 h.
Description: as §1
The target of series [6] is T1, Kinase insert Domain containing Receptor (KDR: the catalytic domain of the VEGF receptor) (Homo sapiens, UniProt P35968).
T1 construct: KDR: the catalytic domain of the VEGF receptor
The series is described as follows: Inhibition of Kinase insert Domain containing Receptor (KDR).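 Note: KDR phosphorylating a Glu:Tyr 4:1 copolymer with P32- or P33-labelled ATP, Mg++ and vanadate, read as acid-insoluble radiolabel, compared with compound-free reaction.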 Type of series: biochemical. Particulars: pH 7.2; radioactive format; read-out: KDR IC50 (converted).
Description: In this standard pharmacological test procedure, KDR protein is mixed, in the presence or absence of a inhibitor compound, with a substrate peptide to be phosphorylated (a copolymer of glutamic acid and tyrosine, E:Y :: 4:1) and other cofactors such as Mg^++ and sodium vanadate (a protein tyrosine phosphatase inhibitor) in an appropriate buffer to maintain pH (7.2). ATP and a radioactive tracer (either P^32-or P^33- labeled ATP) is then add to initiate phosphorylation. After incubation, the radioactive phosphate associated with the acid-insoluble fraction of the assay mixture is then quantified as reflection of substrate phosphorylation.

In series [7] the test system is MCF7. The series is described as follows: Inhibition of cancer cell growth as measured by cell number, MCF7.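 Note: MCF7 was included as a line with little or no EGFR or HER2/neu expression, in contrast to the receptor-overexpressing lines of the panel.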 Particulars: Homo sapiens, MCF7, 48 h, read-out: IC50 MCF7, cell number, Sulforhodamine B, 48 hours exposure; Table 8. Type of series: cell-based, human.
Description: as §1
Series [8] has as its target T2, His-tagged cytoplasmic domain of EGFR (Homo sapiens, UniProt P00533).
T2 construct: containing the EGFR cDNA encoding amino acids 645 - 1186 preceded by Met-Ala-(His)6; made in house; host or cells: Sf9 cells, recombinant baculovirus vHcEGFR52
Description: Inhibition of Epidermal Growth Factor Receptor Kinase (EGF-R) using recombinant enzyme.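 Note: radiometric kinase assay measuring radiolabeled phosphate transfer from ATP onto the peptide tyrosine by scintillation counting, control is reaction without compound, background subtracted, IC50 from dose-response curve.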 Type of series: biochemical. Particulars: recombinant enzyme; RR-SRC peptide; average of the number of tests; read-out: IC50.
Description: The enzyme used in this assay is the His-tagged cytoplasmic domain of EGFR.
Compounds to be evaluated were made into 10 mg/mL stock solutions in 100% dimethylsulfoxide (DMSO). Prior to experiment, stock solutions were diluted to 500 µM with 100% DMSO and then serially diluted to the desired concentration with HEPES buffer (30 mM HEPES pH 7.4).
For the enzyme reaction, 10 µL of each inhibitor (at various concentrations) were added to each well of a 96-well plate. […] This was allowed to sit for 10 min on ice and was followed by the addition of 5 µl peptide (80 µM final conc.), 10µl of 4X Buffer (Table A), 0.25 µL ^33P-ATP and 12 µL H2O. The reaction was allowed to run for 90 min at room temperature and was followed by spotting the entire volume on to precut P81 filter papers. The filter discs were washed 2X with 0.5% phosphoric acid and radioactivity was measured using a liquid scintillation counter.
The % inhibition of the test compound was determined for at least three different concentrations and the IC50 value was evaluated from the dose response curve. […] CPM(control) is in units of counts per minute and was a number expressing the amount of radiolabeled ATP (g-33P) incorporated into the RR-SRC peptide substrate by the enzyme after 90 minutes at room temperature in the absence of test compound as measured by liquid scintillation counting. The CPM values were corrected for the background counts produced by ATP in the absence of the enzymatic reaction. The IC50 values reported in TABLE 2 are averages of the number of tests conducted.

Series [9] has as its system LOX. The series is described as follows: Inhibition of cancer cell growth as measured by cell number, LOX.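 Note: LOX cells served as a line with low or absent EGFR and HER2/neu expression, in contrast to receptor-overexpressing lines.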 It is filed as cell-based, human. Particulars: Homo sapiens, LOX, 48 h, read-out: IC50 LOX, cell number, Sulforhodamine B, 48 hours exposure; Table 8.
Description: as §1
The test system of series [10] is human epidermoid tumors (A431). The series is described as follows: In vivo inhibition of the growth of human epidermoid tumors (A431). Particulars: for S/T = No. Survivors/No. Treated: Day +28 post tumor staging. The procedure:
Representative compounds of this invention (listed below) were evaluated in an in vivo standard pharmacological test procedure which measured its ability to inhibit the growth of human epidermoid tumors. […] BALB/c nu/nu female mice (Charles River, Wilmington, MA) were used in this in vivo standard pharmacological test procedure. A unit of 5 X 10^6 cells were injected SC into mice. When tumors attained a mass of between 100 and 150 mg, the mice were randomized into treatment groups (day zero). […] Control animals received no drug. Tumor mass was determined every 7 days [(length X width^2)/2] for 28 days post staging. Relative tumor growth (Mean tumor mass on days 7, 14, 21, and 28 divided by the mean tumor mass on day zero) is determined for each treatment group.

The mark [11] stands for this setting: read-out: IC50 A431, cell number, Sulforhodamine B, 48 hours exposure, Table 8.
Setting [12] is: read-out: IC50 SKBR3, cell number, Sulforhodamine B, 48 hours exposure, Table 8.
Where [13] appears, read: read-out: IC50 SW620, cell number, Sulforhodamine B, 48 hours exposure, Table 8.
Setting [14] is: Table 10, 80 mg/kg/dose IP on days 1,5,9.
Where [15] appears, read: Table 10, 80 mg/kg/dose PO on days 1 through 10.
Setting [16] is: Table 11, 80 mg/kg/dose IP on days 1,5 and 9.
Setting [17] is: Table 11, 80 mg/kg/dose PO on days 1 through 10.

Structures are written as SMILES. Values after ≈ are worked out from the molar mass of the structure shown. Values joined by “and” are separate entries in the source; they are usually repeats but may differ in a detail not shown here. Equal entries are not always repeated. Where two headings read alike, the source gives them in different places. Some results are limits rather than exact numbers.

Epithelial Cell Kinase (ECK), sequence (P29317 24-976, species assumed): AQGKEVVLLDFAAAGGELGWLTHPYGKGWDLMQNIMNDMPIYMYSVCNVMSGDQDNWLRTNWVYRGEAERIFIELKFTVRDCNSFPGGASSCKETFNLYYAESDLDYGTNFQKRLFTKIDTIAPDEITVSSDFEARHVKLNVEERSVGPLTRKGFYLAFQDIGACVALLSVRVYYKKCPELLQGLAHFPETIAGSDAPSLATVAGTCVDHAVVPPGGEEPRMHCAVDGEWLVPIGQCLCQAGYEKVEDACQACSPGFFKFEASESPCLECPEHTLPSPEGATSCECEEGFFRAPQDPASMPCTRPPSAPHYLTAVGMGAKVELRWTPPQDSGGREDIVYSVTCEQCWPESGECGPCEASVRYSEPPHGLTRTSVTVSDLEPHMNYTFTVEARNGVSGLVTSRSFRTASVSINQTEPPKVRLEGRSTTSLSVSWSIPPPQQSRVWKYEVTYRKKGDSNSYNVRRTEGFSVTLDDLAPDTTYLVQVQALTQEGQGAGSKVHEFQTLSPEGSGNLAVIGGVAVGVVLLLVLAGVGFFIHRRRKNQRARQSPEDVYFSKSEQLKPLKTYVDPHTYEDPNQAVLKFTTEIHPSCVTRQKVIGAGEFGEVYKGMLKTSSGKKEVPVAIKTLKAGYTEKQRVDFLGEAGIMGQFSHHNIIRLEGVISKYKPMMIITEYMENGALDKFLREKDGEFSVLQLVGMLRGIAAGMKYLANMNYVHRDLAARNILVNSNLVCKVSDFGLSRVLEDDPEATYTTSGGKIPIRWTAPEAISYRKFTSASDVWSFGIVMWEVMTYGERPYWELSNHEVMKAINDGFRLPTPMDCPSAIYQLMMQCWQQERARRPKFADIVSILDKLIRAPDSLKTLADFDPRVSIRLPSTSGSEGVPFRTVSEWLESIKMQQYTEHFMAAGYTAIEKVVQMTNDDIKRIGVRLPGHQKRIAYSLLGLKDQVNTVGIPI
T2 sequence (P00533 669-1210): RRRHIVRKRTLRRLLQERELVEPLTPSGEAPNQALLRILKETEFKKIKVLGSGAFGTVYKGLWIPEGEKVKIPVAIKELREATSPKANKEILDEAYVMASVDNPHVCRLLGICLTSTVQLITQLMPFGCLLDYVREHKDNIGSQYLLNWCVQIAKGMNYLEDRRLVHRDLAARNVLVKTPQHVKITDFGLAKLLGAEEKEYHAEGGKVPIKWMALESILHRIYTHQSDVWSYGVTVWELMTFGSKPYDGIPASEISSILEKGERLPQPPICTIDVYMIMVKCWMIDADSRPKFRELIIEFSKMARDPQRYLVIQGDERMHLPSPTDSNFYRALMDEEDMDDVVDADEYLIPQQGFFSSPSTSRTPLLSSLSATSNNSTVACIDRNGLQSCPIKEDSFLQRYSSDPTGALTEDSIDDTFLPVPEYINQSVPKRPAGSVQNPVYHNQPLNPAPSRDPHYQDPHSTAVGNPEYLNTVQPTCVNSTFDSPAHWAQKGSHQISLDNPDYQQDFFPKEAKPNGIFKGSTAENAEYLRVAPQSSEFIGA
T1 sequence (P35968 834-1162 limits assumed): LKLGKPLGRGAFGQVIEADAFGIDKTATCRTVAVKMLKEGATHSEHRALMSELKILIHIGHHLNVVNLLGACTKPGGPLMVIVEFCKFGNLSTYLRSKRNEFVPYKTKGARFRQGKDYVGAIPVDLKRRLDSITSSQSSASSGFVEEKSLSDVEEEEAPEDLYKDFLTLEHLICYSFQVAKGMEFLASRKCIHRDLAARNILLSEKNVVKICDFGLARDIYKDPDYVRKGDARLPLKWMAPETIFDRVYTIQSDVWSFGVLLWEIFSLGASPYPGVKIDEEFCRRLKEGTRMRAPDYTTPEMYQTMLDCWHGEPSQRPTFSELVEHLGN

As for `COc1ccc2c(Nc3cccc(Br)c3)c(C#N)cnc2c1` [Example 3, 4-[(3-Bromophenyl)amino]-7-methoxy-3-guinolinecarbonitrile], the 50% inhibitory concentration (IC50) is 28.2 µM in series [1] and greater than 100 µM in [2].
For `N#Cc1cnc2ccc(NC(=O)CCl)cc2c1Nc1cccc(Br)c1` [Example 19, N-[4-[(3-Bromophenyl)amino]-3-cyano-6-quinolinyl]-2-chloroacetamide], in that order: 24.1 µM and 29 µM.
For `N#Cc1cnc2cc(O)c(O)cc2c1Nc1cccc(Br)c1` [Example 39, 4-[(3-Bromophenyl)amino]-6,7-dihydroxy-3-quinolinecarbonitrile] the same measures were 28.1 µM and 40 µM.
Turning to `N#Cc1cnc2cc3c(cc2c1Nc1cccc(Br)c1)OCO3` [Example 40, 8-[(3-Bromophenyl)amino]-[1,3]-dioxolo[4,5-g]quinoline-7-carbonitrile], the half-inhibitory concentration (IC50) in series [1] was 27.2 µM; in series [2] it was greater than 100 µM.
For `COc1cc2c(Nc3ccc(Cl)cc3F)c(C#N)cnc2cc1OCCCN1CCOCC1` [Example 81, 4-(4-Chloro-2-fluoro-phenylamino)-6-methoxy-7-(3-morpholin-4-yl-propoxy)-quinoline-3-carbonitrile], in that order: 0.425 µM and 0.1 µM.
With `CCN(CC)CC=CC(=O)Nc1ccc2ncc(C#N)c(Nc3cccc(Br)c3)c2c1` [Example 100, 4-Diethylamino-but-2-enoic acid [4-(3-bromophenylamino)-3-cyano-quinolin-6-yl]-amide], the IC50 in [3] (read-out: IC50 A431) came to 0.1 µg/mL (≈ 0.209 µM); in [1], 41.8 µM; in series [4] (read-out: IC50 SKBR3) it was 0.1 µg/mL (≈ 0.209 µM); in [5] (read-out: IC50 SW620), 0.8 µg/mL (≈ 1.67 µM); in series [2], 20 µM.
Turning to `N#Cc1cnc2ccc(NC(=O)C=CCN3CCOCC3)cc2c1Nc1ccc(F)c(Cl)c1` [Example 147, N-{4-[(3-Chloro-4-fluorophenyl)amino]-3-cyano-6-quinolinyl} -4-morpholino-2-butenamide], the results for the IC50 in [1] and in [2] were 43.1 µM and 80 µM, respectively.
As for `C=CC(=O)Nc1ccc2ncc(C#N)c(Nc3ccc(F)c(F)c3)c2c1` [Example 154, N-{3-Cyano-4-[(3,4-difluorophenyl)amino]-6-quinolinyl]-2-propenamide], the half-maximal inhibitory concentration (IC50) was 0.07 µg/mL (≈ 0.2 µM) in series [3] (setting [11]); greater than 85.6 µM in series [6]; 2.57 µg/mL (≈ 7.34 µM) in series [7]; 0.15 µM in [8]; 0.05 µg/mL (≈ 0.143 µM) in series [4] (setting [12]); 0.44 µg/mL (≈ 1.26 µM) in [9]. Also, the IC50 in series [5] (setting [13]) worked out at 0.55 µg/mL (≈ 1.57 µM); in [2] it was 20 µM.
In the case of `N#Cc1cnc2ccc(NC(=O)C=CCN3CCOCC3)cc2c1Nc1ccc(F)c(Br)c1` [Example 174, N-{4-[(3-Bromo-4-fluorophenyl)amino]-3-cyano-6-quinolinyl] -4-morpholino-2-butenamide], the IC50 in [1] was 39.2 µM; in [5] (read-out: IC50 SW620), greater than 5 µg/mL; in series [2], 2.5 µM.
Take `CN1CCN(CC#CC(=O)Nc2ccc3ncc(C#N)c(Nc4cccc(Br)c4)c3c2)CC1` [Example 190, N-[4-[(3-Bromophenyl)amino]-3-cyano-6-quinolinyl]-4-(N-methylpiperazino)-2-butynamide]: in series [1], the IC50 was 39.7 µM.
With `CC(C)N(C)CC#CC(=O)Nc1ccc2ncc(C#N)c(Nc3cccc(Br)c3)c2c1` [Example 191, N-[4-[(3-Bromophenyl)amino]-3-cyano-6-quinolinyl]-4-(N-isopropyl-N-methylamino)-2-butynamide], the IC50 stood at 42 µM in series [1] and 0.06 µg/mL (≈ 0.126 µM) in series [4] (read-out: IC50 SKBR3).
For the molecule `COc1cc2ncc(C#N)c(Nc3cccc(Br)c3)c2cc1NC(=O)C=CCN1CCOCC1` [Example 200, 4-Morpholin-4-yl-but-2-enoic acid [4-(3-bromo-phenylamino)-3-cyano-7-methoxy-quinolin-6-yl]-amide], the IC50 is 38.3 µM in series [1], greater than 5 µg/mL in [5] (read-out: IC50 SW620) and greater than 100 µM in [2].
With `COc1cc2ncc(C#N)c(Nc3ccc(F)c(Cl)c3)c2cc1NC(=O)C=CCN(C)C` [Example 203, 4-Dimethylamino-but-2-enoic acid [4-(3-chloro-4-fluorophenylamino)-3-cyano-7-methoxy-quinolin-6-yl]-amide], half-maximal inhibition in series [1] (IC50) was put at 2.2 µM. In addition, in [10] (setting [14]), the “%T/C Day 7” value came to 20%, the “%T/C Day 14” value stood at 12%, the “%T/C Day 21” value is reported as 14% and the “%T/C Day 28” value was determined as 16%. Moreover, the “S/T = No. Survivors/No. Treated” value in [10] (setting [14]) is recorded as 5/5. Further, in [10] (setting [15]), the “%T/C Day 7” value came to 15%, the “%T/C Day 14” value came out at 8%, the “%T/C Day 21” value was determined as 12% and the “%T/C Day 28” value is recorded as 17%. The “S/T = No. Survivors/No. Treated” value in series [10] (setting [15]) is 4/5. Besides, in series [2], the IC50 is < 1 µM and 0.8 µM.
Consider `COc1cc2ncc(C#N)c(Nc3ccc(F)c(Br)c3)c2cc1NC(=O)C=CCN(C)C` [Example 208, 4-Dimethylamino-but-2-enoic acid [4-(3-bromo-4-fluorophenylamino)-3-cyano-7-methoxy-quinolin-6-yl]-amide], for which the IC50 was 0.067 µg/mL (≈ 0.134 µM) in [3] (setting [11]); 20.1 µM in [6]; 0.0015 µM in series [8]; 0.038 µg/mL (≈ 0.0763 µM) in series [4] (setting [12]); 0.453 µg/mL (≈ 0.909 µM) in series [5] (setting [13]); 13 µM in series [2]. In addition, the results for the “%T/C Day 7” value in series [10] (setting [16]) and in series [10] (setting [17]) were 14% and 6%, respectively. Further, the “%T/C Day 14” value in [10] (setting [16]) was found to be 15%; in series [10] (setting [17]), 6%. Moreover, the “%T/C Day 21” value turned out to be 26% in series [10] (setting [16]) and 8% in [10] (setting [17]). For the same molecule, the “%T/C Day 28” value in series [10] (setting [16]) is 32%; in series [10] (setting [17]) it was 10%. The “S/T = No. Survivors/No. Treated” value in series [10] (setting [16]) and in [10] (setting [17]) was 5/5 in each case.
Turning to `CCOc1cc2ncc(C#N)c(Nc3cccc(Br)c3)c2cc1NC(=O)C=CCN(CC)CC` [Example 217, 4-Diethylamino-but-2-enoic acid [4-(3-bromo-phenylamino)-3-cyano-7-ethoxy-quinolin-6-yl]-amide], the half-maximal inhibitory concentration (IC50) in series [1] turned out to be 0.115 µM. In [10] (setting [16]), the “%T/C Day 7” value amounted to 25%, the “%T/C Day 14” value is reported as 36%, the “%T/C Day 21” value came out at 51% and the “%T/C Day 28” value came out at 56%. In addition, in series [10] (setting [16]), the “S/T = No. Survivors/No. Treated” value is recorded as 5/5. Further, in [10] (setting [17]), the “%T/C Day 7” value is 30%, the “%T/C Day 14” value turned out to be 33%, the “%T/C Day 21” value was 43% and the “%T/C Day 28” value stood at 42%. Also, the “S/T = No. Survivors/No. Treated” value in series [10] (setting [17]) is listed as 5/5.
For the molecule `COc1ccc2ncc(C#N)c(Nc3ccc(Cl)cc3F)c2c1` [Example 283, 4-(4-Chloro-2-fluoro-phenylamino)-6-methoxy-quinoline-3-carbonitrile], the IC50 is 9.15 µM in [1] and greater than 100 µM in series [2].
For `COc1ccc2ncc(C#N)c(Nc3ccc(C)c(O)c3)c2c1` [Example 284, 4-(3-Hydroxy-4-methyl-phenylamino)-6-methoxy-quinoline-3-carbonitrile] the same measures were 32.8 µM and 4 µM.
